US20080200505A1, “Piperidines for the Treatment of Chemokine Mediated Diseases” (ASTRAZENECA AB, priority 2005, published 2008)

Target: T1, human H1 receptor (Homo sapiens, UniProt P35367)
T1 construct: purchased Euroscreen SA, Brussels, Belgium ES-390-M; host or cells: CHO-K1
Assay: Histamine H1 receptor binding, competition displacement of [3H]-pyrilamine
Conditions: displacement of 1 nM [3H]-pyrilamine; membranes from recombinant CHO-K1 cells expressing the human H1 receptor; 1 hour at room temperature; read-out: H1 pKi (converted)
Description: Histamine H1 receptor binding activity of compounds of the invention was assessed by competition displacement of 1 nM [3H]-pyrilamine (Amersham, Bucks, Product code TRK 608, specific activity 30 Ci/mmol) to 2 μg membranes prepared from recombinant CHO-K1 cells expressing the human H1 receptor (Euroscreen SA, Brussels, Belgium, product code ES-390-M) in assay buffer (50 mM Tris pH 7.4 containing 2 mM MgCl2, 250 mM sucrose and 100 mM NaCl) for 1 hour at room temperature.
The following compounds of the invention gave inhibition of [3H] pyrilimine binding: […]

T1 sequence (P35367 whole entry): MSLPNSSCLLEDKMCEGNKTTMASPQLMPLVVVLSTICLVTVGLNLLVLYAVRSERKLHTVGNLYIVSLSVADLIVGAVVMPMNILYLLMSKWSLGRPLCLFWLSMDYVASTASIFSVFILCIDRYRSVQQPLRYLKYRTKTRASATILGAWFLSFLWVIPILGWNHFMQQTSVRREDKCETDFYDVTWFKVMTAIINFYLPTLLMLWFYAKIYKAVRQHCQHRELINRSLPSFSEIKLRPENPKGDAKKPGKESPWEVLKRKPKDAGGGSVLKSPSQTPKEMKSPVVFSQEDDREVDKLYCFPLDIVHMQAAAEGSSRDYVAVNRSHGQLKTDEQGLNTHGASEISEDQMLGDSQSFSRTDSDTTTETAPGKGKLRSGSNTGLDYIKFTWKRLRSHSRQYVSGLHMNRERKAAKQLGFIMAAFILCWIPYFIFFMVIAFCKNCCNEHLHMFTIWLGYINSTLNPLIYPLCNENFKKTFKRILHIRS

Ki	SMILES
200 nM	O=C(O)[C@@H]1CCCC[C@H]1N1CCC(CN2CCC(Oc3ccc(Cl)c(Cl)c3)CC2)CC1 (racemic) [Example 1A, (1R,2R) and (1S,2S)-2-(4-{[4-(3,4-dichlorophenoxy)piperidin-1-yl]methyl}piperidin-1-yl)cyclohexanecarboxylic acid]
316 nM	O=C(O)C1CCCC1N1CCC(CN2CCC(Oc3ccc(Cl)c(Cl)c3)CC2)CC1 [Example 4A, (1S,2R) and (1R,2S)-2-(4-{[4-(3,4-dichlorophenoxy)piperidin-1-yl]methyl}piperidin-1-yl)cyclopentanecarboxylate]
126 nM	O=C(O)[C@H]1C2CCC(C2)[C@H]1N1CCC(CN2CCC(Oc3ccc(Cl)c(Cl)c3)CC2)CC1 (mixture of isomers) [Example 3A, (2S,3R) and (2R,3S)-3-(4-{[4-(3,4-dichlorophenoxy)piperidin-1-yl]methyl}piperidin-1-yl)bicyclo[2.2.1]heptane-2-carboxylic acid]
